Key:
Assay in all cases: Post-emergence efficacy, glasshouse
Type in all cases: in vivo
Settings in all cases: after 13 days, 100=total damage to plant, 0=no damage to plant
[1] = test system: Amaranthus palmeri (AMAPA)
Protocol: (§1) Seeds of a variety of test species were shown in standard soil in pots. After cultivation for 14 days (post-emergence) under controlled conditions in a glasshouse (at 24/16° C., day/night; 14 hours light; 65% humidity), the plants were sprayed with an aqueous spray solution derived from the dissolution of the technical active ingredient for each of compounds 1 to 26 from Table A above, in a small amount of acetone and a special solvent and emulsifier mixture referred to as IF50 (11.12% Emulsogen EL360 TM+44.44% N-methylpyrrolidone+44.44% Dowanol DPM glycol ether), to create a 50 g/I solution which was then diluted to required concentration using 0.25% or 1% Empicol ESC70 (Sodium lauryl ether sulphate)+1% ammonium sulphate in water as diluent. These spray test compositions are described as composition numbers C1 to C26, with the numerical value corresponding to the compound number from Table A.
(§2) The test plants were then grown in a glasshouse under controlled conditions (at 24/16° C., day/night; 14 hours light; 65% humidity) and watered twice daily. After 13 days the test was evaluated (100=total damage to plant; 0=no damage to plant).
(§3) Ipomoea hederacea (IPOHE), Euphorbia heterophylla (EPHHL), Chenopodium album (CHEAL), Amaranthus palmeri (AMAPA), Lolium perenne (LOLPE), Digitaria sanguinalis (DIGSA), Eleusine indica (ELEIN), Echinochloa crus-galli (ECHCG), Setaria faberi (SETFA)

[2] = test system: Chenopodium album (CHEAL)
Protocol: as §1, §2, §3

[3] = test system: Digitaria sanguinalis (DIGSA)
Protocol: as §1, §2, §3

[4] = test system: Echinochloa crus-galli (ECHCG)
Protocol: as §1, §2, §3

Eleusine indica (ELEIN) = test system: Eleusine indica (ELEIN)
Protocol: as §1, §2, §3

[5] = test system: Euphorbia heterophylla (EPHHL)
Protocol: as §1, §2, §3

[6] = test system: Ipomoea hederacea (IPOHE)
Protocol: as §1, §2, §3

Lolium perenne (LOLPE) = test system: Lolium perenne (LOLPE)
Protocol: as §1, §2, §3

Setaria faberi (SETFA) = test system: Setaria faberi (SETFA)
Protocol: as §1, §2, §3

Row | Compound | Control of weed species AMAPA ([1]; 1000 g/Ha) | Control of weed species CHEAL ([2]; 1000 g/Ha) | Control of weed species DIGSA ([3]; 1000 g/Ha) | Control of weed species ECHCG ([4]; 1000 g/Ha) | Control of weed species ELEIN (Eleusine indica (ELEIN); 1000 g/Ha) | Control of weed species EPHHL ([5]; 1000 g/Ha) | Control of weed species IPOHE ([6]; 1000 g/Ha) | Control of weed species LOLPE (Lolium perenne (LOLPE); 1000 g/Ha) | Control of weed species SETFA (Setaria faberi (SETFA); 1000 g/Ha) | Control of weed species AMAPA ([1]; 500 g/Ha) | Control of weed species CHEAL ([2]; 500 g/Ha) | Control of weed species DIGSA ([3]; 500 g/Ha) | Control of weed species ECHCG ([4]; 500 g/Ha) | Control of weed species ELEIN (Eleusine indica (ELEIN); 500 g/Ha) | Control of weed species EPHHL ([5]; 500 g/Ha) | Control of weed species IPOHE ([6]; 500 g/Ha) | Control of weed species LOLPE (Lolium perenne (LOLPE); 500 g/Ha) | Control of weed species SETFA (Setaria faberi (SETFA); 500 g/Ha) | other results
1 | C[n+]1cc(P(=O)([O-])Oc2ccccc2)c2ccccc2n1 [Composition C11] | 100 | 70 | 70 | 20 | 80 | 60 | 70 | 30 | 50 |  |  |  |  |  |  |  |  |  | 
2 | COP(=O)([O-])c1c[n+](C)nc2cc(C)ccc12 [Composition C14] | 100 | 100 | 80 | 70 | 100 | 100 | 100 | 60 | 90 |  |  |  |  |  |  |  |  |  | 
3 | C[n+]1cc(P(=O)([O-])OCc2ccc(F)cc2)c2ccccc2n1 [Composition C23] |  |  |  |  |  |  |  |  |  |  |  |  |  |  |  |  |  |  | Control of weed species AMAPA ([1]; 125 g/Ha): 20; Control of weed species CHEAL ([2]; 125 g/Ha): 10; Control of weed species DIGSA ([3]; 125 g/Ha): 60; Control of weed species ECHCG ([4]; 125 g/Ha): 30; Control of weed species ELEIN (Eleusine indica (ELEIN); 125 g/Ha): 40; Control of weed species EPHHL ([5]; 125 g/Ha): 40; Control of weed species IPOHE ([6]; 125 g/Ha): 10; Control of weed species LOLPE (Lolium perenne (LOLPE); 125 g/Ha): 10; Control of weed species SETFA (Setaria faberi (SETFA); 125 g/Ha): 30
4 | COP(=O)([O-])c1c(C)[n+](C)nc2ccccc12 [Composition C9] | 100 | 90 | 80 | 40 | 80 | 50 | 90 | 50 | 70 |  |  |  |  |  |  |  |  |  | 
5 | C[n+]1cc(P(=O)([O-])OCc2ccccc2)c2ccccc2n1 [Composition C22] |  |  |  |  |  |  |  |  |  | 10 | 20 | 60 | 20 | 60 | 60 | 20 | 10 | 30 | 
6 | COc1ccc2c(P(=O)([O-])OC)c[n+](C)nc2c1 [Composition C17] | 10 | 10 | 10 | 10 | 10 | 20 | 10 | 0 | 10 |  |  |  |  |  |  |  |  |  | 
7 | C=CCOP(=O)([O-])c1c[n+](C)nc2ccccc12 [Composition C5] |  |  |  |  |  |  |  |  |  | 90 | 100 | 90 | 90 | 100 | 90 | 70 | 60 | 80 | 
8 | CCCOP(=O)([O-])c1c[n+](C)nc2ccccc12 [Composition C21] |  |  |  |  |  |  |  |  |  | 100 | 100 | 100 | 70 | 100 | 100 | 100 | 70 | 100 | 
9 | COP(=O)([O-])c1c[n+](C)nc2ccccc12 [Composition C27] |  |  |  |  |  |  |  |  |  | 100 | 100 | 100 | 100 | 100 | 100 | 90 | 90 | 100 | 

— patent publication US20220248678A1, “HERBICIDAL COMPOUNDS” (SYNGENTA CROP PROTECTION AG, priority 2019, published 2022)
